# Test results reported in patent US20250367171A1, “THERAPEUTIC OR PROPHYLACTIC AGENT FOR PERIPHERAL NEUROPATHIES” (Toray Industries, Inc., priority 2017, published 2025).
# Legend:
# [1] = system: rat oxaliplatin-induced peripheral neuropathy model; test: Cold allodynia (cold plate test) in rat oxaliplatin-induced peripheral neuropathy model; format: in vivo; conditions: 10 mg/kg oral twice a day, day 12 after induction, vs vehicle group
# Protocol: Oxaliplatin (4 mg/kg, Elplat I.V. infusion solution […]; Yakult) was administered to SD rats (7 weeks old, male; CHARLES RIVER LABORATORIES JAPAN, INC.) in a cycle of 1 week (intraperitoneally administered twice, two consecutive days per week) for 2 or 3 weeks, thereby preparing an oxaliplatin-induced peripheral neuropathy model. As a control (pseudo-induction), a 5% glucose solution (Otsuka Pharmaceutical Factory, Inc.) was administered. The initial day of administration was designated as day 0 after induction of pathological conditions.
# A solution containing compound 1 (3 or 10 mg/kg) or a solvent thereof (water for injection; Otsuka Pharmaceutical Factory, Inc.) was orally administered everyday (twice a day) (2nd administration was performed 8 hours after the 1st administration) to rats from day 0 after induction of pathological conditions for 18 days. […]
# The beneficial effects on cold allodynia were evaluated before induction of pathological conditions and on day 12 after induction of pathological conditions (before the 1st administration of compound 1). Beneficial effects on cool allodynia were evaluated by cold plate test. […] An animal was placed on a plate kept at a predetermined temperature (8° C.), and then the withdrawal latency required until pain-related behaviors (hind paw lifting, hind paw shaking, hind paw licking, standing, or jumping) were confirmed was measured. […]
# [2] = system: rat oxaliplatin-induced peripheral neuropathy model; test: Mechanical allodynia (von Frey test) in rat oxaliplatin-induced peripheral neuropathy model; format: in vivo; conditions: day 18 after induction, vs vehicle group
# Protocol: Oxaliplatin (4 mg/kg, Elplat I.V. infusion solution […]; Yakult) was administered to SD rats (7 weeks old, male; CHARLES RIVER LABORATORIES JAPAN, INC.) in a cycle of 1 week (intraperitoneally administered twice, two consecutive days per week) for 2 or 3 weeks, thereby preparing an oxaliplatin-induced peripheral neuropathy model. As a control (pseudo-induction), a 5% glucose solution (Otsuka Pharmaceutical Factory, Inc.) was administered. The initial day of administration was designated as day 0 after induction of pathological conditions. […]
# Beneficial effects on mechanical allodynia were evaluated before induction of pathological conditions and on day 18 after induction of pathological conditions (before the 1st administration of compound 1). Beneficial effects on mechanical allodynia were evaluated by von Frey test. The test method was performed according to the method described in the known literature (Chaplan et al. Journal of Neuroscience Methods, 1994, Vol. 53, p. 55-63) using von Frey filaments (North Coast Medical) so that 50% response threshold was calculated.
# [3] = system: fetal rat dorsal root ganglion-derived established neuronal cell line ND15; test: Protective effect on cisplatin-induced cell damage (alamarBlue cell viability), simultaneous treatment; format: cell-based; conditions: ND15 cells, cisplatin 50 μM 4 hours, simultaneous treatment with compound 1 at 0.5, 5 or 50 μM
# Protocol: A fetal rat dorsal root ganglion-derived established neuronal cell line ND15 was cultured in 10% FBS-containing DMEM. On the next day, the cells were cultured in 10% FBS-containing DMEM containing EC23 (10 μM, Reinner) for 8 days, for differentiation into neurons.
# The medium was exchanged with DMEM/F12 medium containing cisplatin (final concentration of 50 μM) followed by 4 hours of culture, thereby inducing cell injury. Compound 1 was contained in the medium (final concentration of 0.5, 5 or 50 μM) for treatment, in a manner similar to that for cisplatin. Groups were composed of 6 groups: an untreated group, a 50 μM compound 1 treatment group (the group treated with 50 μM compound 1), a cisplatin treatment group, a cisplatin and 0.5 μM compound 1 treatment group (the group treated with cisplatin and 0.5 μM compound 1), a cisplatin and 5 μM compound 1 treatment group, and a cisplatin and 50 μM compound 1 treatment group.
# For measurement of cell viability, the medium was exchanged with DMEM/F12 medium containing alamarBlue (Invitrogen), followed by 2 hours of culture, and then the absorbance at wavelength of 570 nm and the absorbance at wavelength of 595 nm were measured. Cell viability was calculated using the ratio of the absorbance at wavelength of 570 nm to the absorbance at wavelength of 595 nm and the untreated group designated as 100%.
# [4] = system: myelin basic protein (MBP) in co-culture of rat dorsal root ganglion neurons and Schwann cells; test: Expression level of MBP in co-culture, Western blotting; format: cell-based; conditions: 30 μM, day 43 of culture, vs vehicle treatment group
# Protocol: In a manner similar to Example 3, co-culture of rat dorsal root ganglion neurons and Schwann cells was prepared, myelination was induced, and then treatment with compound 1 was performed. Groups were composed of 2 groups: a sterile distilled water treatment group (Vehicle treatment group); and a 30 μM compound 1 treatment group (compound 1 treatment group).
# For Western blotting, on day 43 from the initial day of cell culture, the co-culture was lysed in a RIPA cell lysis solution, and then the cell lysate was subjected to sodium dodecyl sulfate-polyacrylamide gel electrophoresis. Subsequently, the protein was transferred to a PVDF membrane, and then an MBP band was detected by antibody reaction. Image Lab software (BIO-RAD) was used for quantifying the thus detected band.
smiles,measurement,setting,value
"CN(C)C1CCN(C(=O)C[C@H](O)c2nccn2C)CC1 [Compound 1, (S)-1-(4-(dimethylamino)piperidin-1-yl)-3-hydroxy-3-(1-methyl-1H-imidazol-2-yl)propan-1-one]",withdrawal latency in cold plate test (cold allodynia),[1],significantly prolonged withdrawal latency
same,50% response threshold in von Frey test (mechanical allodynia),[2]; 3 mg/kg oral twice a day,significant increase in 50% response threshold
same,50% response threshold in von Frey test (mechanical allodynia),[2]; 10 mg/kg oral twice a day,significant increase in 50% response threshold
same,cell viability (decrease caused by cisplatin),[3],suppressed decrease
same,myelin sheath marker protein MBP expression level,[4],"increases in the myelin sheath marker protein, MBP"
